Bridge positions count the residues as written; N and C are the ends. Peptide text beside a SMILES is read from it.

These results are taken from PMC5039624 (Scientific Reports, 2016).

The target of one series is isolated voltage-sensor domain of the voltage-gated potassium channel KvAP (VSDK), wild type (UniProt Q9YDF8). Put plainly: pull-down.
Conditions: not given
VSTx1 K8A (peptide) gave a percent decrease in binding against wild-type VSTx1 of 20%.
VSTx1 W7A (peptide) displayed a percent decrease in binding against wild-type VSTx1 of 58%.

Tested on in the next series: not listed separately
Put plainly: Liposome centrifugation assay, POPG liposomes. The format is physicochemical. The following applies: LUVs extruded through 0.1 μm filters, 10 mM HEPES pH 7.4, 150 mM NaCl; 10 μM toxin, 1 h room temperature, 30 min at 100,000 g; unbound toxin in supernatant by RP-HPLC; fit to partition equilibrium equation. As to the method:
To investigate whether the micelle-binding interface identified by NMR-CSM faithfully reports on the lipid-binding interface of the peptide we used a previously reported liposome centrifugation assay[30] to study the interaction between VSTx1 and phospholipids with different head groups. VSTx1 was incubated with liposomes of different composition, then the liposomes were pelleted using ultracentrifugation and the amount of unbound VSTx1 in the supernatant was determined using reverse-phase (RP) HPLC (Fig. 4a,b). Partition coefficients (Kp) for binding of VSTx1 to liposomes were calculated by fitting to the partition equilibrium equation (see Eqn (3) in Materials and Methods). The Kp for binding to 1-palmitoyl-2-oleoyl-sn-glycero-3-phosphoglycerol (POPG) liposomes was 2.4 × 10^5 while the Kp values for binding to POPC or 1-palmitoyl-2-oleoyl-sn-glycero-3-phosphoethanolamine (POPE) liposomes were close to 0 (both <10^2) (Fig. 4e).
Large unilamellar vesicles (LUVs) were prepared by drying lipids (POPG and/or POPC, 25 mg/mL) under nitrogen gas, drying the lipid pellet under vacuum, and resuspending the lipids by vortexing for 1 h in an aqueous buffer containing 10 mM HEPES pH 7.4, and 150 mM NaCl. Vesicles were extruded 20 times using 0.1 μm polycarbonate filters (Avanti Polar Lipids, Inc.). Aqueous solutions of the toxin (10 μM) were incubated with varying amounts of vesicles for 1 h at room temperature, then the vesicles were centrifuged for 30 min at 100,000 g before the toxin concentration in the aqueous phase was determined. Aqueous concentrations of VSTx1 were quantified by RP-HPLC using a monolithic C18 column (4.6 × 100 mm). The toxin was eluted with a linear gradient of 10–50% solvent B (0.046% TFA in acetonitrile) in solvent A (0.05% TFA in water) over 10 min at a flow rate of 3 ml/min. The partition coefficients (Kp) for the binding of VSTx1 to liposomes were calculated by fitting to the partition equilibrium equation: […]
For the molecule `CSCC[C@@H]1NC(=O)[C@H](Cc2ccccc2)NC(=O)[C@H](CCCCN)NC(=O)CNC(=O)[C@@H](NC(=O)[C@H](CCC(=O)O)NC(=O)[C@@H](N)CO)CSSC[C@@H]2NC(=O)[C@@H]3CSSC[C@@H](C(=O)N[C@H](C(=O)N[C@@H](C)C(=O)N[C@@H](C)C(=O)N[C@@H](CO)C(=O)N4CCC[C@H]4C(=O)N[C@@H](Cc4ccccc4)C(=O)O)C(C)C)NC(=O)[C@H](Cc4c[nH]c5ccccc45)NC(=O)[C@H](CCCCN)NC(=O)[C@H](Cc4c[nH]c5ccccc45)NC(=O)[C@H](CCCNC(=N)N)NC(=O)[C@H](CO)NC(=O)[C@H](CO)NC(=O)[C@H](CSSC[C@H](NC(=O)[C@H](CCCCN)NC(=O)[C@H](Cc4c[nH]c5ccccc45)NC1=O)C(=O)N[C@@H](CCCCN)C(=O)N[C@@H](CC(N)=O)C(=O)N[C@@H](CO)C(=O)N[C@@H](CC(N)=O)C(=O)N[C@@H](CC(=O)O)C(=O)N3)NC(=O)[C@H](C(C)C)NC(=O)[C@H](CC(C)C)NC(=O)[C@H](CC(=O)O)NC(=O)[C@H](CCCCN)NC2=O` [L30A] (H-SECGKFMWKCKNSNDCCKDLVCSSRWKWCVAASPF-OH; disulfide 3-17, 10-22, 16-29), the “Partition coefficient (Kp) for binding to POPG liposomes” value (shortened to “Partition coefficient (Kp) for binding”) is 0.55 × 10^5.
`CSCC[C@@H]1NC(=O)[C@H](Cc2ccccc2)NC(=O)[C@H](CCCCN)NC(=O)CNC(=O)[C@@H](NC(=O)[C@H](CCC(=O)O)NC(=O)[C@@H](N)CO)CSSC[C@@H]2NC(=O)[C@@H]3CSSC[C@@H](C(=O)N[C@H](C(=O)N[C@@H](CC(C)C)C(=O)N[C@@H](C)C(=O)N[C@@H](CO)C(=O)N4CCC[C@H]4C(=O)N[C@@H](Cc4ccccc4)C(=O)O)C(C)C)NC(=O)[C@H](Cc4c[nH]c5ccccc45)NC(=O)[C@H](CCCCN)NC(=O)[C@H](Cc4c[nH]c5ccccc45)NC(=O)[C@H](CCCNC(=N)N)NC(=O)[C@H](CO)NC(=O)[C@H](CO)NC(=O)[C@H](CSSC[C@H](NC(=O)[C@H](CCCCN)NC(=O)[C@H](Cc4c[nH]c5ccccc45)NC1=O)C(=O)N[C@@H](CCCCN)C(=O)N[C@@H](CC(N)=O)C(=O)N[C@@H](CO)C(=O)N[C@@H](C)C(=O)N[C@@H](CC(=O)O)C(=O)N3)NC(=O)[C@H](C(C)C)NC(=O)[C@H](CC(C)C)NC(=O)[C@H](CC(=O)O)NC(=O)[C@H](CCCCN)NC2=O` [N13A] (H-SECGKFMWKCKNSADCCKDLVCSSRWKWCVLASPF-OH; disulfide 3-17, 10-22, 16-29): the “Partition coefficient (Kp) for binding” value is recorded as 2.7 × 10^5.
`CSCC[C@@H]1NC(=O)[C@H](Cc2ccccc2)NC(=O)[C@H](CCCCN)NC(=O)CNC(=O)[C@@H](NC(=O)[C@H](CCC(=O)O)NC(=O)[C@@H](N)CO)CSSC[C@@H]2NC(=O)[C@@H]3CSSC[C@@H](C(=O)N[C@H](C(=O)N[C@@H](CC(C)C)C(=O)N[C@@H](C)C(=O)N[C@@H](CO)C(=O)N4CCC[C@H]4C(=O)N[C@@H](Cc4ccccc4)C(=O)O)C(C)C)NC(=O)[C@H](Cc4c[nH]c5ccccc45)NC(=O)[C@H](CCCCN)NC(=O)[C@H](Cc4c[nH]c5ccccc45)NC(=O)[C@H](CCCNC(=N)N)NC(=O)[C@H](CO)NC(=O)[C@H](CO)NC(=O)[C@H](CSSC[C@H](NC(=O)[C@H](C)NC(=O)[C@H](Cc4c[nH]c5ccccc45)NC1=O)C(=O)N[C@@H](CCCCN)C(=O)N[C@@H](CC(N)=O)C(=O)N[C@@H](CO)C(=O)N[C@@H](CC(N)=O)C(=O)N[C@@H](CC(=O)O)C(=O)N3)NC(=O)[C@H](C(C)C)NC(=O)[C@H](CC(C)C)NC(=O)[C@H](CC(=O)O)NC(=O)[C@H](CCCCN)NC2=O` [K8A] (H-SECGKFMWACKNSNDCCKDLVCSSRWKWCVLASPF-OH; disulfide 3-17, 10-22, 16-29): the “Partition coefficient (Kp) for binding” value was 0.38 × 10^5.
For the molecule `CSCC[C@@H]1NC(=O)[C@H](Cc2ccccc2)NC(=O)[C@H](CCCCN)NC(=O)CNC(=O)[C@@H](NC(=O)[C@H](CCC(=O)O)NC(=O)[C@@H](N)CO)CSSC[C@@H]2NC(=O)[C@@H]3CSSC[C@@H](C(=O)N[C@H](C(=O)N[C@@H](CC(C)C)C(=O)N[C@@H](C)C(=O)N[C@@H](CO)C(=O)N4CCC[C@H]4C(=O)N[C@@H](Cc4ccccc4)C(=O)O)C(C)C)NC(=O)[C@H](Cc4c[nH]c5ccccc45)NC(=O)[C@H](CCCCN)NC(=O)[C@H](Cc4c[nH]c5ccccc45)NC(=O)[C@H](CCCNC(=N)N)NC(=O)[C@H](CO)NC(=O)[C@H](CO)NC(=O)[C@H](CSSC[C@H](NC(=O)[C@H](CCCCN)NC(=O)[C@H](C)NC1=O)C(=O)N[C@@H](CCCCN)C(=O)N[C@@H](CC(N)=O)C(=O)N[C@@H](CO)C(=O)N[C@@H](CC(N)=O)C(=O)N[C@@H](CC(=O)O)C(=O)N3)NC(=O)[C@H](C(C)C)NC(=O)[C@H](CC(C)C)NC(=O)[C@H](CC(=O)O)NC(=O)[C@H](CCCCN)NC2=O` [W7A] (H-SECGKFMAKCKNSNDCCKDLVCSSRWKWCVLASPF-OH; disulfide 3-17, 10-22, 16-29), the “Partition coefficient (Kp) for binding” value is 0.77 × 10^5.
With `CSCC[C@@H]1NC(=O)[C@H](Cc2ccccc2)NC(=O)[C@H](CCCCN)NC(=O)CNC(=O)[C@@H](NC(=O)[C@H](CCC(=O)O)NC(=O)[C@@H](N)CO)CSSC[C@@H]2NC(=O)[C@@H]3CSSC[C@@H](C(=O)N[C@H](C(=O)N[C@@H](CC(C)C)C(=O)N[C@@H](C)C(=O)N[C@@H](CO)C(=O)N4CCC[C@H]4C(=O)N[C@@H](Cc4ccccc4)C(=O)O)C(C)C)NC(=O)[C@H](Cc4c[nH]c5ccccc45)NC(=O)[C@H](CCCCN)NC(=O)[C@H](Cc4c[nH]c5ccccc45)NC(=O)[C@H](C)NC(=O)[C@H](CO)NC(=O)[C@H](CO)NC(=O)[C@H](CSSC[C@H](NC(=O)[C@H](CCCCN)NC(=O)[C@H](Cc4c[nH]c5ccccc45)NC1=O)C(=O)N[C@@H](CCCCN)C(=O)N[C@@H](CC(N)=O)C(=O)N[C@@H](CO)C(=O)N[C@@H](CC(N)=O)C(=O)N[C@@H](CC(=O)O)C(=O)N3)NC(=O)[C@H](C(C)C)NC(=O)[C@H](CC(C)C)NC(=O)[C@H](CC(=O)O)NC(=O)[C@H](CCCCN)NC2=O` [R24A] (H-SECGKFMWKCKNSNDCCKDLVCSSAWKWCVLASPF-OH; disulfide 3-17, 10-22, 16-29), the “Partition coefficient (Kp) for binding” value is on record as 0.11 × 10^5.
